In one assay the test system is PDGFR-β. The assay can be described thus: Immunohistochemistry of end-point KPC tumors: panCAF marker. Type of assay: in vivo, mouse. The following applies: for Percent coverage of PDGFR-ß positive staining: Extended Data 6C, KPC tumours at endpoint, individual FOV. The procedure: All tissues or matrices, including patient TMAs, were fixed in 10% buffered formalin and embedded in paraffin. The 4-μm sections of samples were deparaffinized with xylene and rehydrated in graded ethanol washes. For immunohistochemistry, Bond Dewax Solution (AR9222) was used. Antigen retrieval was performed using Bond RX H2(30) protocol: HIER 30 min ER1 (citrate pH 6) OR ER2 (EDTA pH 9) at 100 °C. Slides were quenched in BOND Polymer Refine Detection (Leica Biosystems DS9800). […] Slides were digitized on an Aperio slide scanner and representative areas per tumor acquired and analyzed by researchers blinded to the conditions of the experiment.
Extended Data Fig. 6 PXS-5505 in combination with gemcitabine in a KPC model. a. Quantification of proliferating cells (Ki67 positive nuclear staining) in KPC tumors at end point, treated as indicated. 5 fields of view (500 μm × 500 μm) per mouse and 10 mice per cohort were scored. […] Quantification of percent coverage of αSMA positive staining in KPC tumors at end point, treated as indicated. 3 fields of view (1000 μm × 1000 μm) per mouse and 10 mice per cohort were scored. […] Quantification of percent coverage of PDGFR-ß positive staining in KPC tumors at end point, treated as indicated. 3 fields of view (1000 μm × 1000 μm) per mouse and 10 mice per cohort were scored. […] Quantification of pMLC2 positive staining in stromal regions of KPC tumors at end point, treated as indicated. 3 fields of view (500 μm × 500 μm) per mouse and 10 mice per cohort were scored. […] Quantification of tumor vasculature (CD31 positive staining) in KPC tumors at end point, treated as indicated. 3 fields of view (1000 μm × 1000 μm) per mouse and 10 mice per cohort were scored. […] Quantification of STAT3 activation (pSTAT3 positive nuclear staining) in KPC tumors at end point, treated as indicated. 3 fields of view (1000 μm × 1000 μm) per mouse and 5 mice per cohort were scored. […] Scale bars = 100 μm. g Quantification of macrophage infiltration (F4/80 positive staining) in KPC tumors at end point, treated as indicated. […]

The next assay deals with KPC PDAC tumors. The assay is described as follows: Necrosis determined by H&E in end-point KPC tumors. The assay is classed as in vivo. The following applies: KPC tumours at endpoint; one value per mouse, 8 mice per cohort scored (Extended Data 6J). The procedure:
All tissues or matrices were fixed in 10% buffered formalin and embedded in paraffin. The 4-μm sections of samples were deparaffinized with xylene and rehydrated in graded ethanol washes. H&E staining and counterstaining were performed on a Leica autostainer.
Extended Data Fig. 6 PXS-5505 in combination with gemcitabine in a KPC model. a. Quantification of proliferating cells (Ki67 positive nuclear staining) in KPC tumors at end point, treated as indicated. 5 fields of view (500 μm × 500 μm) per mouse and 10 mice per cohort were scored. […] Scale bars = 100 μm b. Quantification of percent coverage of αSMA positive staining in KPC tumors at end point, treated as indicated. 3 fields of view (1000 μm × 1000 μm) per mouse and 10 mice per cohort were scored. […] Scale bars = 100 μm c. Quantification of percent coverage of PDGFR-ß positive staining in KPC tumors at end point, treated as indicated. 3 fields of view (1000 μm × 1000 μm) per mouse and 10 mice per cohort were scored. […] Scale bars = 100 μm d. Quantification of pMLC2 positive staining in stromal regions of KPC tumors at end point, treated as indicated. 3 fields of view (500 μm × 500 μm) per mouse and 10 mice per cohort were scored. […] Quantification of tumor vasculature (CD31 positive staining) in KPC tumors at end point, treated as indicated. 3 fields of view (1000 μm × 1000 μm) per mouse and 10 mice per cohort were scored. […]

Structures are written as SMILES. Values joined by “and” are separate entries in the source; they are usually repeats but may differ in a detail not shown here. Equal entries are not always repeated.

For the compound `Nc1ccn([C@@H]2O[C@H](CO)[C@@H](O)C2(F)F)c(=O)n1` [Gem, gemcitabine], the “Percent coverage of PDGFR-ß positive staining” value in the assay on PDGFR-β was 7.4938% and 2.1875% and 12.1122% and 4.282% and 6.095% and 3.1691% and 15.1145% and 8.8619% and 8.0756% and 17.8714% and 24.3073% and 20.1172% and 13.2929% and 10.304% and 12.3137% and 10.967% and 18.634% and 4.9424% and 8.9111% and 7.7908% and 2.017% and 14.5457% and 8.9344% and 10.6658% and 5.631% and 1.6247% and 8.4484% and 0.5673% and 1.2057% and 0.8465%. In addition, the PDGFR-β positivity entry with PDGFR-β (KPC tumors at end point) is “small decreases in positivity”. For the same compound, the “necrosis determined by H&E” value in the assay on KPC PDAC tumors is 0 and 7.986 and 6.976 and 4.928.

Regarding `Cl.Cl.NC/C=C(\F)CS(=O)(=O)c1cccc2cccnc12.O` [PXS-5505, (Z)-3-fluoro-4-(quinolin-8-ylsulfonyl)but-2-en-1-amine dihydrochloride monohydrate], the “Percent coverage of PDGFR-ß positive staining” value in the assay with PDGFR-β was 6.765% and 8.3993% and 2.8629% and 12.2376% and 9.6982% and 4.3212% and 4.8524% and 9.496% and 7.1445% and 8.9357% and 7.1025% and 17.1234% and 12.5648% and 3.0699% and 20.4926% and 2.5465% and 8.2725% and 3.1151% and 4.1221% and 5.7763% and 4.8975% and 4.1951% and 11.8569% and 14.757% and 1.2435% and 4.7314% and 2.3407% and 3.9912% and 1.8413% and 6.5811%. Besides, the “necrosis determined by H&E” value in the assay with KPC PDAC tumors was 0 and 2.201 and 15.496 and 22.429 and 2.215.

These data come from publication PMC10518255, “A first-in-class pan-lysyl oxidase inhibitor impairs stromal remodeling and enhances gemcitabine response and survival in pancreatic cancer” (Nature Cancer, 2023).
